Legend:
BSEP = BSEP (Homo sapiens (Human), UniProt O95342); experiment: BSEP inhibition: biliary clearance of Taurocolic Acid in sandwich-cultured human hepatocytes; type: in vitro ADME; conditions: sandwich-cultured cryopreserved human hepatocytes, probe Taurocolic Acid (TCA); 50 μM test compound, 10 μM TCA, human hepatocytes sandwich configuration
Experimental: BSEP inhibition was evaluated using human hepatocytes cultured between two layer of collagen (sandwich configuration). In this culture condition, hepatocytes express relevant transporters including BSEP and retain the bile canalicular structure. An inhibition of the biliary clearance of Taurocolic Acid (TCA), a known BSEP substrate, was used to assess BSEP interaction.
BSEP inhibition was evaluated using cryopreserved human hepatocytes (Plateable Cryopreserved Human Hepatocytes, BIOIVT) cultured for 5 day between two layer of collagen (sandwich configuration). In this culture condition, hepatocytes express relevant transporters including BSEP and retain the bile canalicular structure.
On day 5 of culture, hepatic cells are ready for the assay and the biliary clearance of Taurocolic Acid (TCA), a known BSEP substrate, can be estimated in presence and in absence of compound of interest.
The sample solution was prepared dissolving test compound and TCA in DMSO and then diluted in the Assay Buffer: Hank's Balance Salt Solution (HBSS+) warmed at 37° C. before use, to give the 10 μM TCA working solution with and without 50 μM of test compound. Hepatocytes were incubated for 10 minutes with these working solutions allowing TCA to be excreted into bile. At the end of incubation, the working solution was aspirated, and the content of the bile was collected through the addition of HBSS Modified without Ca2+/Mg2+(HBSS−). The presence of Ca2+ in the buffer is required to maintain the integrity of the tight junctions, the diffusional barrier between the canalicular lumen and extracellular space. Instead, incubation of cells in Ca2+-free buffer disrupts the tight junctions and opens the bile canalicular structures, allowing the bile content to be released and collect for HPLC-MS/MS analysis.
The in vitro biliary clearance of TCA incubated with and without test compounds is calculated according to the following formula:
where • Acc. Bile=(TCA amount in HBSS (−) buffer samples (pmol/mg protein)*Volume of each samples (mL))/Protein content per well (mg) • AUC=Incubation time (min)*T0 Concentration. T0 concentration is the initial TCA concentration in the medium.
The inhibition of BSEP was calculated as percentage of inhibition of TCA biliary clearance in presence of compound of interest, according to the following formula: BSEP inhibition %=100−(TCA ClBil with test compound*100)
TCA ClBil without test compound.

[1] = Permeability on Caco-2 cells monolayers; type: in vitro ADME; conditions: human, with Elacridar 10 µM (PgP inhibitor), Papp A>B with PgP inhibitor Elacridar, 10 μM compound, read-out: Passive Permeability
Experimental: Even more advantageously, the compounds of formula (I) of the present invention are also endowed with a good permeability profile that, in its turn, can ensure a suitable bioavailability for an oral administration. The permeability was assessed in human Caco 2 cell line, an in vitro model that mimic human gastrointestinal barrier and so useful to predic oral absorption.
The permeability of the compounds of the present invention was evaluated performing the assay on Caco-2 cells monolayers (human colon adenocarcinoma immortalized cell) by measuring the transport of compound (absorption and secretion) in both directions: apical to basolateral direction (A>B) and basolateral to apical (B>A) with and without PgP inhibitor (Elacridar).
The cells, purched from ReadyCell in 96 well format (Cod. KRECE-CCR50), were cultured by the supplier for 21 day on transwell supports in DMEM 1 g/L glucose culture medium supplemented with Fetal Bovin Sierum (10%), Glutamine 200 mM (1%) and Penicillin 10000 U/ml-10 mg/ml Streptomycin (1%).
On day 21 of colture, cell monolayers integrity was verified by measuring the trans-epithelial electric resistance (TEER) using the EVOM equipment (Endohm, WPI, Germany) and studying the apparent permeability (Papp) of reference compounds (Sulpiride and Metoprolol). Furthermore, as a control, the Talinolol 10 uM (Pgp efflux substrate) with and without Elacridar in both directions was used.
The sample solution was prepared dissolving test compound in DMSO at the concentration of 10 mM and then diluted in the Assay Buffer (Hank's Balance Salt Solution) warmed at 37° C. before use, to give the 10 μM Compound working solution with and without 10 μM Elacridar. These working solutions were added to donor compartment (apical for A>B direction and basolateral for B>A direction) and Assay Buffer (Hank's Balance Salt Solution) to the receiver compartment (basolateral for A>B direction and apical for B>A direction). The plate was incubated at 37° C. for 120 min, all incubation were conducted in triplicates. At the end of incubation, samples from donor and receiver compartments were collected for HPLC-MS/MS analyses.
The permeability coefficients (Papp) in both directions: apical to basolateral (A>B) and basolateral to apical (B>A) with and without PgP inhibitor (Elacridar) was calculated in nm/sec, using the following equation:
[formula] • where: • Cr=measured concentration in the receiver well at the time t (expressed as IS ratio) • Vr=volume of the receiver well (ml) • t=time (sec) • A=membrane surface area (cm^2) • C0=initial donor concentration • Passive Papp is considered Papp A>B with PgP inhibitor Elacridar.

[2] = target: human recombinant LPA1 expressed in CHO cells (Homo sapiens (Human), UniProt Q92633); experiment: LPA1 antagonist FLIPR calcium assay in CHO-hLPA1 cells; type: cell-based; conditions: range of activity; CHO-hLPA1, LPA EC80, Ca2+ mobilization; read-out: LPA1 IC50
Sequence of human recombinant LPA1 expressed in CHO cells (Q92633 whole entry): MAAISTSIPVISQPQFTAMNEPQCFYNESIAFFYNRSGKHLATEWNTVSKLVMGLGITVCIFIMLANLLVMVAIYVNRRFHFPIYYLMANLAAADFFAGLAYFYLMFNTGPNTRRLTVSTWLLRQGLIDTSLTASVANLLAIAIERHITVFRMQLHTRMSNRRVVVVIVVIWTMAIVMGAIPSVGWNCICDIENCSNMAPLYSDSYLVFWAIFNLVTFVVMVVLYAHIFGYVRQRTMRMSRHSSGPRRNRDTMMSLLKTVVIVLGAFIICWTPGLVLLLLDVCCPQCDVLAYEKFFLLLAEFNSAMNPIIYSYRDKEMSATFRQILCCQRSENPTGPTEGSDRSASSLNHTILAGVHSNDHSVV
Experimental: The effectiveness of compounds of the present invention as LPA1 antagonists can be determined at the human recombinant LPA1 expressed in CHO cells, using a FLIPR assay in 384 well format.
CHO-hLPA1 cell lines are cultured in a humidified incubator at 5% CO2 in DMEM/F-12 (1:1) MIXTURE with 2 mM Glutamax, supplemented with 10% of Foetal Bovine Serum, 1 mM Sodium Pyruvate, 11 mM Hepes and 1× Penicillin/Streptomycin. […] Serial dilutions (1:3 or 1:4, 11 points CRC) of compounds are performed in 100% DMSO at 200× the final concentration. […] The final concentration of DMSO in the assay will be 0.5% in each well. Medium is removed by aspiration and cells are then incubated with 30 μl of a loading solution containing 5 μM of the cytoplasmic Ca2+ indicator Cal-520 AM in Assay Buffer containing 2.5 mM probenecid for 30 min at 37° C. incubator (cell loading). The loaded cell plates are transferred into the FLIPR instrument and calcium responses are monitored during the on-line addition protocols. For testing of compounds, after the cell loading, 10 μl/well of 4× antagonists' solution was added onto the cells. After 30 min pre-incubation (at 37° C.), 10 μl/well of 5× concentrated LPA EC80 was added and Ca2+ mobilization responses was followed during the on-line addition protocol. Intracellular peak fluorescence values subtracted by baseline fluorescence are exported and analysed to determine IC50 values, respectively. The calcium response is expressed as percentage of the maximal inhibition of the EC80 agonist response.
The raw data (peak height expressed as relative fluorescence units) are normalized and transformed into “percent of inhibition”. Curve fitting and pIC50 (−LogIC50) estimations are carried out using a four-parameter logistic model using XLfit Software.

Sequence of BSEP (O95342 whole entry): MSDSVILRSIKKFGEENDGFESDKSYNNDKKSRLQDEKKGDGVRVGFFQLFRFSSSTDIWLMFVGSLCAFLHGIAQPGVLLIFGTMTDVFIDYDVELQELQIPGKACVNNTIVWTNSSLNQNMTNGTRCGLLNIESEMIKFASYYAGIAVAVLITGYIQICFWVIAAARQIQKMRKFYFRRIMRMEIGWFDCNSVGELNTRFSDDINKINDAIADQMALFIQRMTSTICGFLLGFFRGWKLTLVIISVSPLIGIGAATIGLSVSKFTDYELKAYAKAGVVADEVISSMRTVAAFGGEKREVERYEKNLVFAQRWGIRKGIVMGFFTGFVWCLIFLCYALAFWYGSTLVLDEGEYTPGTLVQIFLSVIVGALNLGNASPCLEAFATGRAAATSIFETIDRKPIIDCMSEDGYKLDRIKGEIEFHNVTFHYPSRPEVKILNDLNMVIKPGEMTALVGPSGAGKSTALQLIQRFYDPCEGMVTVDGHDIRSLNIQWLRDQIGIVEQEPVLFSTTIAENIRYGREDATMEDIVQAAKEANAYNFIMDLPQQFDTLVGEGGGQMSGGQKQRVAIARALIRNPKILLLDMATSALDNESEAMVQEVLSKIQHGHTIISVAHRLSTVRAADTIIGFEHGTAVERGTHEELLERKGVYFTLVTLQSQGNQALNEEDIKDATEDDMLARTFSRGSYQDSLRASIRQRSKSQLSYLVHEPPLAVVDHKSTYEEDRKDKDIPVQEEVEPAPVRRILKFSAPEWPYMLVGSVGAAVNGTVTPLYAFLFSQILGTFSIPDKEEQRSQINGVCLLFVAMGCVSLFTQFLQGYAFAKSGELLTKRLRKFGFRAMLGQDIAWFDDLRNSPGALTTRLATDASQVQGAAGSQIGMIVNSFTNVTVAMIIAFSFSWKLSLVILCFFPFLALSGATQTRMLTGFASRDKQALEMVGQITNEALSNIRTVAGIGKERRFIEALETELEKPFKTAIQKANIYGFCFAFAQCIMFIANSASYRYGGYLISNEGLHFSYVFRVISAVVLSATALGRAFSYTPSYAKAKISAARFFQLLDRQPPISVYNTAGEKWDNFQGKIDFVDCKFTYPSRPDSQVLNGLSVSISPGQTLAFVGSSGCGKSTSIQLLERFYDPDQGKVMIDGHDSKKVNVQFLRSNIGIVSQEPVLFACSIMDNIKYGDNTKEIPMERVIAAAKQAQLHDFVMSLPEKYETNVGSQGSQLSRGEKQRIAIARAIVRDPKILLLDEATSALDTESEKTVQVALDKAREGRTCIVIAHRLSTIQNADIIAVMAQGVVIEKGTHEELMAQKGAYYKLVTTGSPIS

Papp at 120 min, 10 µM [1] | IC50 [2] | Compound | inhibition at 10 min, 50 μM (BSEP)
≥ 1.5 ×10⁻⁶ cm/s |  | Cc1nc(-c2cnn(C)c2NC(=O)O[C@H](C)c2ccccc2Cl)ccc1NC(=O)[C@H]1CCCC[C@@H]1C(=O)O (stereo in doubt) [Example 2, (1S,2S)-2-((6-(5-((((R)-1-(2-chlorophenyl)ethoxy)carbony1)amino)-1-methyl-1H-pyrazol-4-yl)-2-methylpyridin-3-y1)carbamoyl)cyclohexane-1-carboxylic acid] | ≤ 50%
≥ 1.5 ×10⁻⁶ cm/s |  | Cc1nc(-c2onc(C)c2NC(=O)O[C@H](C)c2ccccc2)ccc1NC(=O)[C@H]1CCCC[C@@H]1C(=O)O [Example 27, (1S,2S)-2-((2-methyl-6-(3-methyl-4-((((R)-1-phenylethoxy)carbonyl)amino)isoxazol-5-yl)pyridin-3-yl)carbamoy1)cyclohexane-1-carboxylic acid] | ≤ 50%
≥ 1.5 ×10⁻⁶ cm/s |  | Cc1nc(-c2snc(C)c2NC(=O)O[C@H](C)c2ccccc2Cl)ccc1NC(=O)[C@H]1CCCC[C@@H]1C(=O)O [Example 42, (1S,2S)-2-((6-(4-((((R)-1-(2-chlorophenyl)ethoxy)carbonyl)amino)-3-methylisothiazol-5-yl)-2-methylpyridin-3-yl)carbamoyl)cyclohexane-1-carboxylic acid] | 
 | 50 to 250 nM | CCC[C@@H](C)OC(=O)Nc1c(-c2ccc(NC(=O)[C@H]3CCCC[C@@H]3C(=O)O)c(C)n2)nnn1C [Example 52, (1S,2S)-2-((2-methyl-6-(1-methyl-5-(((((R)-pentan-2-yl)oxy)carbonyl)amino)-1H-1,2,3-triazol-4-yl)pyridin-3-yl)carbamoyl)cyclohexane-1-carboxylic acid] | ≤ 50%
 | 50 to 250 nM | Cc1noc(-c2ccc(NC(=O)[C@H]3CCCC[C@@H]3C(=O)O)cn2)c1NC(=O)OC(C)c1cccnc1F (single isomer, unassigned) [Example 18] | ≤ 50%
 | 50 to 250 nM | COc1ccccc1[C@@H](C)OC(=O)Nc1c(C)noc1-c1ccc(NC(=O)[C@H]2CCCC[C@@H]2C(=O)O)cn1 [Example 37, (1S,2S)-2-((6-(4-((((R)-1-(2-methoxyphenyl)ethoxy)carbonyl)amino)-3-methylisoxazol-5-yl)pyridin-3-yl)carbamoyl)cyclohexane-1-carboxylic acid] | ≤ 50%
 | 50 to 250 nM | Cc1noc(-c2ccc(NC(=O)[C@H]3CCCC[C@@H]3C(=O)O)cn2)c1NC(=O)O[C@H](C)c1cccnc1Cl [Example 29, (1S,2S)-2-((6-(4-((((R)-1-(2-chloropyridin-3-yl)ethoxy)carbonyl)amino)-3-methylisoxazol-5-yl)pyridin-3-yl)carbamoyl)cyclohexane-1-carboxylic acid] | ≤ 50%
 | 50 to 250 nM | Cc1noc(-c2ccc(NC(=O)[C@H]3CCCC[C@@H]3C(=O)O)cn2)c1NC(=O)OC(C)c1cccnc1F (stereo partly drawn) [Example 17, (1S,2S)-2-((6-(4-(((1-(2-fluoropyridin-3-yl)ethoxy)carbonyl)amino)-3-methylisoxazol-5-yl)pyridin-3-yl)carbamoyl)cyclohexane-1-carboxylic acid] | ≤ 50%
 | < 50 nM | Cc1nc(-c2nnn(C)c2NC(=O)O[C@H](C)c2ccccc2)ccc1NC(=O)[C@H]1CCCC[C@@H]1C(=O)O [Example 44, (1S,2S)-2-((2-methyl-6-(1-methyl-5-((((R)-1-phenylethoxy)carbonyl)amino)-1H-1,2,3-triazol-4-yl)pyridin-3-yl)carbamoyl)cyclohexane-1-carboxylic acid] | ≤ 50%
 | < 50 nM | Cc1noc(-c2ncc(NC(=O)[C@H]3CCCC[C@@H]3C(=O)O)cc2F)c1NC(=O)O[C@H](C)c1ccccc1Cl [Example 31, (1S,2S)-2-((6-(4-((((R)-1-(2-chlorophenyl)ethoxy)carbonyl)amino)-3-methylisoxazol-5-yl)-5-fluoropyridin-3-yl)carbamoyl)cyclohexane-1-carboxylic acid] | ≤ 50%
 | 50 to 250 nM | Cc1nc(-c2nnn(C)c2NC(=O)O[C@H](C)c2ccccc2C(F)(F)F)ccc1NC(=O)[C@H]1CCCC[C@@H]1C(=O)O [Example 45, (1S,2S)-2-((2-methyl-6-(1-methyl-5-((((R)-1-(2-(trifluoromethyl)phenyl)ethoxy)carbonyl)amino)-1H-1,2,3-triazol-4-yl)pyridin-3-yl)carbamoyl)cyclohexane-1-carboxylic acid] | ≤ 50%
 | 50 to 250 nM | Cc1nc(-c2onc(C)c2NC(=O)O[C@H](C)c2cccnc2Cl)ccc1NC(=O)[C@H]1CCCC[C@@H]1C(=O)O [Example 11, (1S,2S)-2-((6-(4-((((R)-1-(2-chloropyridin-3-yl)ethoxy)carbonyl)amino)-3-methylisoxazol-5-yl)-2-methylpyridin-3-yl)carbamoyl)cyclohexane-1-carboxylic acid] | ≤ 50%
 | < 50 nM | C[C@@H](OC(=O)Nc1c(-c2ccc(NC(=O)[C@H]3CCCC[C@@H]3C(=O)O)cc2)nnn1C)c1ccccc1Cl [Example 23, (1S,2S)-2-((4-(5-((((R)-1-(2-chlorophenyl)ethoxy)carbonyl)amino)-1-methyl-1H-1,2,3-triazol-4-yl)phenyl)carbamoyl)cyclohexane-1-carboxylic acid] | ≤ 50%

Source: US12454530B2, “Amido cyclohexane acid derivatives as LPA receptor inhibitors” (CHIESI FARMACEUTICI S.P.A., priority 2020, dated 2025)
